US10463656B2, “Methods and compositions for prevention of feedlot bovine respiratory disease” (Iowa State University Research Foundation, Inc., priority 2017, dated 2019)
Entries after “also recorded” stand apart in the source; their conditions may differ.

Legend:
[1] = biological target: T1, Bovine PAFR (Bos taurus, UniProt Q9TTY5); test: PAF-mediated intracellular calcium accumulation in BHK cells transiently expressing bovine PAFR; assay type: cell-based; settings: 10 nM PAF, transfected BHK cells; for block of bovine PAFR function, PAF-mediated intracellular calcium accumulation (FIG. 11): antagonist 1-100 nM; for block of bovine PAFR function by antihistamines, PAF-mediated intracellular calcium accumulation (FIG. 12): antihistamine 1-100 nM
T1 construct: expressed in transfected cells; host or cells: BHK cells, transient transfection with lipofectamine, pcDNA3.3-PAFR
T1 sequence (Q9TTY5 whole entry): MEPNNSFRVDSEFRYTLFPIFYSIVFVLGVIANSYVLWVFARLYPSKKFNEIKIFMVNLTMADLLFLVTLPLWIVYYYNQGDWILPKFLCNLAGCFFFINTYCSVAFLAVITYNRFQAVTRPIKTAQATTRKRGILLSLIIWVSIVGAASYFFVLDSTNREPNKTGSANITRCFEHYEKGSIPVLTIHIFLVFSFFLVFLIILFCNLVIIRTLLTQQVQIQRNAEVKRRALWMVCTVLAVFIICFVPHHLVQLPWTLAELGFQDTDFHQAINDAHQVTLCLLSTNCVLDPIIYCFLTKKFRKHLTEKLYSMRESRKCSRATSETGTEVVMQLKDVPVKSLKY
Description: Bovine PAFR was cloned into pcDNA3.3 expression vector and transiently expressed in BHK tissue culture cells using lipofectamine as per Carlson et al., J Biol Chem, 271:23146053 (1996), herein incorporated by reference in its entirety. Ten nM PAF was then added to the cells in the presence of various concentrations of various antagonists: rupatadine, lexipafant (as in Kingsnorth, et al., BJS, 82:1414-20 (1995), herein incorporated in its entirety), and WEB2086 a PAF antagonist which has not been commercialized and/or used in humans to date (as in Casals-Stenzel et al., J of Pharmacolo Experimental Therapeutics, 241:974-81 (1987), herein incorporated in its entirety), as well as tripelennamine, a bovine-approved antihistamine at concentrations ranging between 1-100 nM. Intracellular calcium accumulation was monitored in the transfected cells using a commercially available kit (Abcam, Cambridge). IC50 values were then determined by identifying the concentration of the antagonist that reduced the maximal PAF-mediated intracellular calcium accumulation by 50%.
Various antihistamines were also tested. […] Intracellular calcium accumulation was monitored in the transfected cells using a commercially available kit (Abcam, Cambridge). IC50 values were then determined by identifying the concentration of the antagonist that reduced the maximal PAF-mediated intracellular calcium accumulation by 50%.

[2] = biological target: T2, Bovine H1 histamine receptor (Bos taurus, UniProt P30546); test: Histamine-mediated intracellular calcium accumulation in BHK cells transiently expressing bovine H1 histamine receptor; assay type: cell-based; settings: 10 nM histamine; transfected BHK cells
T2 construct: expressed in transfected cells; host or cells: BHK cells, transient transfection with lipofectamine, pcDNA3.3
T2 sequence (P30546 whole entry): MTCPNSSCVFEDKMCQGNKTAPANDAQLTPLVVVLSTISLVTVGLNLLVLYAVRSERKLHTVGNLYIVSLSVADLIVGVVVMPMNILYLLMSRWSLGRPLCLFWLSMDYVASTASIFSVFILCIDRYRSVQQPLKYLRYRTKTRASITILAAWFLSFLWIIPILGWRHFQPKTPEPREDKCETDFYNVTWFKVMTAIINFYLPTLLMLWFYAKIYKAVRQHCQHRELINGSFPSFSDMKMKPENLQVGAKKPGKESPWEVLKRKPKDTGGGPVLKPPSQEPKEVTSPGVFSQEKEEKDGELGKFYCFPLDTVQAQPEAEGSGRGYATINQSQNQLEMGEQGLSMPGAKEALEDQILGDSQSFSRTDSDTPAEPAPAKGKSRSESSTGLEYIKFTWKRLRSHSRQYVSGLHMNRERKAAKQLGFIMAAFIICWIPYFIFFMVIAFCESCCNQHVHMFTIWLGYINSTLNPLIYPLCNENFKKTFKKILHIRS
Description: Bovine H1 histamine receptor was cloned into pcDNA3.3 expression vector and transiently expressed in BHK tissue culture cells using lipofectamine as per Carlson et al. Ten nM histamine was then added to the cells in the presence of various concentrations of rupatadine, tripelennamine, lexipafant, or WEB2086. Intracellular calcium accumulation was monitored in the transfected cells using a commercially available kit (Abcam, Cambridge, Mass.). IC50 values were then determined by identifying the concentration of the antagonist that reduced the maximal PAF-mediated intracellular calcium accumulation by 50%. […] Therefore, as showing in Examples 11 and 12, rupatadine is the only antihistamine that can also block the function of PAFR.

[3] = biological target: T3, PAFR (Bos taurus, UniProt Q9TTY5); test: Stress hormone- and commensal oral bacteria-mediated second messenger accumulation in calf blood cells; assay type: cell-based, cattle; settings: 500 nM inhibitor, blood of animals with increased PAFR expression, cortisol 5 ng/mL, norepinephrine 100 pg/mL, 10^6 CFUs/mL bacteria, six hours 37°C
T3 construct: endogenous in cells; host or cells: whole blood cells of cattle (ex vivo)
T3 sequence (Q9TTY5 whole entry): as the sequence (Q9TTY5 whole entry) above
Text: A PAFR inhibitor blocks the stress hormone- and commensal oral bacteria-mediated second messenger accumulation in calf blood cells that have an increase in expression of PAFR. Studies presented in Example 1 and FIG. 1 were repeated with the inclusion of the compositions comprising the anti-inflammatory drug rupatadine according to the invention. Blood was drawn from 10 animals that have an increase in PAFR expression (those in which an RT-PCR amplicon was visible after 10-15 cycles) and 10 animals with “normal” or no PAFR expression (those in which an RT-PCR amplicon was visible after 30-45 cycles).
Approximately 5 mL of whole blood was collected from the jugular or caudal vein of non-transported juvenile and adult cattle. Blood was placed in EDTA tubes, aliquoted, and cortisol (5 ng/mL) and norepinephrine (100 pg/mL) were added to some of the blood. The next day, blood samples were incubated with 0 or 10^6 CFUs/mL of commensal oral bacteria, 0 or 500 nM of the inhibitor, and a second messenger reagent for six hours at 37° C. with gentle rolling. After the six-hour incubation period, blood samples were analyzed for the production of second messengers. Data was standardized based on second messenger production in the presence of vehicle. […] Fifty ng of total RNA was then subjected to semi-quantitative RT-PCR to confirm the PAFR expression status of each animal.

[4] = tested on: BRD; test: BRD prevention at the feedlot, drug in the feed; assay type: in vivo, calves
Description: An initial study was performed to confirm BRD prevention at the feedlot using an anti-inflammatory composition comprising rupatadine, the oral inhibitor of PAFR. A total of 18 calves were evaluated with the treatment arm receiving a dosage rate of 0.3 mg/kg. Calves were provided the drug in the feed during the first three weeks after entering the feedlot which is within the high risk 6-week period following transfer of the animal. Calves were purchased from a location in Joplin, Mo. having an overall incidence of BRD at >40% which is higher than the standard incidence of about 10% in cattle.
A further study was performed to confirm BRD prevention at the feedlot using the anti-inflammatory composition comprising rupatadine. The same methodology of Example 5 was employed with the modification of the number of calves and the dosage rate. The dosage rate was increased to 0.6 mg/kg. The number of calves were increased to 24 in total. The results are consistent to the first trial, including: 41.7% of treated calves (n=5 of 12) developed BRD whereas 100% of untreated calves (n=12 of 12) developed BRD.
A further study was performed to confirm BRD prevention at the feedlot using the anti-inflammatory composition comprising rupatadine as outlined in Example 5 with the modification of the number of calves (20 total) and the dosage rate. The dosage rate increased to 1.2 mg/kg.

[5] = Pharmacotherapeutic study, blood levels after oral administration to feedlot calves; assay type: in vivo; settings: daily oral doses of 30 mg/animal for 5 days; six calves
Description: A pharmacotherapeutic study was completed to confirm the PAFRi survives the rumen and reaches therapeutic blood and lung concentrations following oral administration to feedlot calves. Six calves were purchased and given daily oral doses of 30 mg/animal of the drug rupatadine for 5 days. Blood was drawn five times on day one and twice per day thereafter to measure the blood levels of rupatadine.

[6] = tested on: BRD; test: BRD prevention in high-risk calves, weekly injections (Example 13); assay type: in vivo; settings: after five weeks of weekly subcutaneous 7 mg/kg; BRD(+) calves usually >25%
Description: Twenty-five high-risk BRD calves were transported to a new barn and five each were assigned to different treatment groups: no treatment, weekly subcutaneous injections of 7 mg/kg of rupatadine, weekly injections of 1 mg/kg tripelennamine, weekly injections of 10 mg/kg WEB2086, and weekly injections of 1 mg/kg tripelennamine and 10 mg/kg WEB2086. The animals were observed over the next five weeks twice daily for BRD. Any animal who required antibiotics for treating the clinical signs of BRD was classified as having BRD. […] Four of the five (80%, n=4 of 5) animals receiving tripelennamine only developed BRD.
After the five weeks, the rupatadine treated animals were euthanized and the lungs removed and necropsied. Three veterinarians then assessed the lungs for signs of disease, such as abscessation or consolidation. […] Lung pathology in BRD(+) calves is usually >25%, and of the rupatadine treated animals, there was only about 5-10% disease identified by the veterinarians.

[7] = tested on: BRD; test: BRD prevention in high-risk calves, treatment methods of rupatadine (Example 14); assay type: in vivo
Description: In order to test various treatment methods of rupatadine, 25 high-risk calves were transported to a new farm. Seven calves were used as controls, six were given rupatadine as a single oral dose of 1 mg/kg, six were given rupatadine as a single subcutaneous injection of 7 mg/kg, six calves were given weekly subcutaneous injections of 7 mg/kg rupatadine. The animals were observed over the next five weeks twice daily for BRD. Any animal who required antibiotics for treating the clinical signs of BRD was classified as having BRD.
All the calves (100%, n=6 of 6) eventually developed BRD between days three and 31. […] The calf that did develop BRD did so on day 31.

[8] = tested on: PAFR; test: PAFR level in blood of treated calves by qRT-PCR (Example 14); assay type: in vivo; settings: weekly depot injection versus control and other rupatadine treatments
Description: Blood was extracted from all 25 calves was extracted weekly and the level of PAFR was assayed using qRT-PCR and the theoretical copies of transcript/200 ng of total RNA. […] However, it dropped the most in the weekly depot injection calves during the last three weeks of observations.

**Q.** Which “block of bovine PAFR function, PAF-mediated intracellular calcium accumulation (FIG. 11)” value [1] does the source give for `Cc1nnc2n1-c1sc(CCC(=O)N3CCOCC3)cc1C(c1ccccc1Cl)=NC2` [WEB2086] here?
**A.** blocked

**Q.** What about the “block of the function of the H1 histamine receptor, intracellular calcium accumulation (FIG. 13)” value [2] of the same compound?
**A.** fail to black

**Q.** With `CN(C)CCOC(c1ccccc1)c1ccccc1` [diphenhydramine] as the compound, how does the “block of bovine PAFR function by antihistamines, PAF-mediated intracellular calcium accumulation (FIG. 12)” value [1] read?
**A.** do not block

**Q.** Which “block of bovine PAFR function by antihistamines, PAF-mediated intracellular calcium accumulation (FIG. 12)” value [1] does the source give for `OCCOCCN1CCN(C(c2ccccc2)c2ccc(Cl)cc2)CC1` (stereo not shown) [hydroxyazine] here?
**A.** do not block

**Q.** Which results are given for `CCOC(=O)[C@H](CC(C)C)N(C)S(=O)(=O)c1ccc(Cn2c(C)nc3cnccc32)cc1` [lexipafant]?
**A.** block of bovine PAFR function, PAF-mediated intracellular calcium accumulation (FIG. 11) [1]: blocked; block of the function of the H1 histamine receptor, intracellular calcium accumulation (FIG. 13) [2]: fail to black

**Q.** With `CC(CN1c2ccccc2Sc2ccccc21)N(C)C` (stereo not shown) [promethazine] as the compound, how does the “block of bovine PAFR function by antihistamines, PAF-mediated intracellular calcium accumulation (FIG. 12)” value [1] read?
**A.** do not block

**Q.** For `COc1ccc(CN(CCN(C)C)c2ccccn2)cc1` [pyrilamine], which “block of bovine PAFR function by antihistamines, PAF-mediated intracellular calcium accumulation (FIG. 12)” value [1] is on record?
**A.** do not block

**Q.** For `Cc1cncc(CN2CCC(=C3c4ccc(Cl)cc4CCc4cccnc43)CC2)c1` [rupatadine, 8-chloro-11-[1-[(5-methyl-3-pyridyl)methyl]-4-piperidyliden]-6,11-dihydro-5H-benzo[5,6]cyclohepta[1,2-b]pyridine], which “stress hormone- and commensal oral bacteria-mediated second messenger accumulation” value [3] is on record?
**A.** blocks

**Q.** And the “stress hormone- and commensal oral bacteria-mediated second messenger accumulation” value ([3]; listed as PAFRi)?
**A.** indistinct from normal or non-expressing samples

**Q.** What about the “treated calves that developed BRD” value ([4]; 0.3 mg/kg in the feed, first three weeks after entering the feedlot, 8 treated calves, within 5 weeks) of the same compound?
**A.** 50%

**Q.** And the “treated calves that developed BRD” value ([4]; 0.6 mg/kg in the feed, n=5 of 12)?
**A.** 41.7%

**Q.** What about the “treated calves that developed BRD” value ([4]; 1.2 mg/kg in the feed, n=3 of 10) of the same compound?
**A.** 33.3%

**Q.** And the “blood levels of rupatadine (FIG. 9)” value [5]?
**A.** reaches therapeutic concentrations more rapidly than in humans

**Q.** And the “block of bovine PAFR function, PAF-mediated intracellular calcium accumulation (FIG. 11)” value [1]?
**A.** blocked

**Q.** And the “block of bovine PAFR function by antihistamines, PAF-mediated intracellular calcium accumulation (FIG. 12)” value [1]?
**A.** able to block PAFR function; also recorded: blocks

**Q.** What about the “block of the function of the H1 histamine receptor, intracellular calcium accumulation (FIG. 13)” value [2] of the same compound?
**A.** able to block

**Q.** What about the “lung disease identified by the veterinarians at necropsy” value [6] of the same compound?
**A.** 5-10%

**Q.** What about the “high risk animals that did not develop BRD” value ([7]; weekly long-acting injections of 7 mg/kg) of the same compound?
**A.** five out of six

**Q.** And the “animals that developed BRD” value ([7]; weekly subcutaneous injections of 7 mg/kg, five-week observation, n=6)?
**A.** 16.7%

**Q.** And the “day on which the calf developed BRD” value ([7]; weekly subcutaneous injections of 7 mg/kg, the one calf that developed BRD)?
**A.** 31 days

**Q.** And the “PAFR expression over a five-week period” value [8]?
**A.** greatest decrease in PAFR expression

**Q.** For `CN(C)CCN(Cc1ccccc1)c1ccccn1` [tripelennamine], which “block of bovine PAFR function, PAF-mediated intracellular calcium accumulation (FIG. 11)” value [1] is on record?
**A.** not blocked

**Q.** And the “block of bovine PAFR function by antihistamines, PAF-mediated intracellular calcium accumulation (FIG. 12)” value [1]?
**A.** do not block

**Q.** And the “block of the function of the H1 histamine receptor, intracellular calcium accumulation (FIG. 13)” value [2]?
**A.** able to block
